Assay results reported in patent publication US8030493B2, “Monovalent and divalent salts of N-(5-hydroxynicotinoil) -L-glutamic acid exhibiting psychotropic (antidepressant and anxiolytic), neuroprotective, geroprotective and cerebroprotective action” (Obschestvo S Ogranichennoy Otvetstvennostyu “Natsionalnaya …, priority 2006, dated 2011).
Marks after values point to notes of the source that are not given here.

Key:
Type in all cases: in vivo
[1] = test system: rats with massive cortical ischemia; test: Model of massive cortical ischemia (occlusion of middle cerebral artery): ischemic damage of cerebral cortex; conditions: for Intensity of ischemic damage of cerebral cortex (slice score, points), slice 1 / Intensity of ischemic damage of cerebral cortex (slice score, points), slice 2 / Intensity of ischemic damage of cerebral cortex (slice score, points), slice 3 / Intensity of ischemic damage of cerebral cortex (slice score, points), slice 4 / Intensity of ischemic damage of cerebral cortex (slice score, points), slice 5: 72 hours after OMCA
Method: White nondescript male rats with body weight 350-450 g anesthetized with chloral hydrate (400 mg/kg, intraperitoneally) were used in the experiments. After ligation of left carotid occlusion of middle cerebral artery (OMCA) was made under the microscope (magnification 14.0×3.3) proximal to bifurcation to frontal and parietal branches (S. T. Chen et al., Stroke, 1986, v. 17, No 4, p. 738-743).
After the surgery the animals were randomized into 3 groups. Experimental animals received Compound I or nooglutyl intraperitoneously 30 minutes, 2, 24, and 48 hours after the surgery. Control animals at the same time points received saline (0.9% sodium chloride solution). 72 hours after OMCA the animals were decapitated. Material frozen at −20° C. was used for preparation of 5 frontal slices 2.5 mm thick, which were painted with 2,3,5-triphenyltetrazolium solution (TPTZ). Auc1 morphometric program was used to perform planimetria, determination of affected zone extent and percentage of affected zone extent in relation to volume of ipsilateral hemisphere. The surgery results in creation of vast ischemic damage of the brain cortex, which is localized within frontal-parietal and dorsal-lateral zones. To compare intensity of the changes in different slices arbitrary scale was used, with 75%, 60%, 45%, 20%, 5%, and 0% affection of hemisphere assessed as 2.5 points, 2 points, 1.5 points, 1 point, 0.5 points, and 0 points, respectively.

[2] = test system: rats with hemorrhagic stroke; test: Hemorrhagic stroke: neurological deficit (Stroke-index McGrow scale); conditions: for Number of animals with neurological symptoms, %: Circus movements / Number of animals with neurological symptoms, %: Palsy of 1-4 extremities / Number of animals with neurological symptoms, %: Paresis of 1-4 extremities / Number of animals with neurological symptoms, %: Weakness of extremities: 20 mg/kg single dose intraperitoneally; for Rats with severe neurological symptoms: control with hemorrhagic stroke 60%
Text: White nondescript male rats with body weight 200-250 g, which lived in vivarium and had feed (standard palletized feed) and water ad libitum, with natural alternation of day and night, were used in the experiments. Hemorrhagic stroke (local cerebral hemorrhage) was simulated according to method by A. N. Makarenko et al. (Method of local hemorrhage simulation I various structures of the brain in experimental animals. Journal Visshei Nervnoy Deyatelnosti—Journal of Higher Nervous Activities, 2002, v. 52, No 6, p. 765-768). In nembutal-anesthetized rats (40 mg/kg, i.m.) destruction of the brain tissue in capsule interna area was made with the use of special device (mandarin-knife) followed by application of blood (0.02-0.03 ml) taken from under the rat's tongue to the damaged area (within 2-3 minutes). False-operated animals underwent scalping and craniotomy. The animals were divided into 5 groups: intact rats, false-operated rats, animals with hemorrhagic stroke received nooglutyl at 20 mg/kg, and animals with hemorrhagic stroke received Compound I at 20 mg/kg. Effects were recorded within 24 hours and 14 days after the surgery. Learning ability and memory of the rats was examined in the model of passive avoidance response (PAR, Passive Avoidance supplied by Lafayette Instrument Co., USA). To determine neurological deficit in the animals Stroke-index McGrow scale modified by I. V. Gannushkina (Functional architectonics of the brain, Moscow, Medicina, 1977, 224 p.) was used. The severity of the condition was determined by the sum of the points. The number of rats with mild symptoms up to 2.5 points of Stroke-index scale (apathy, weakness of the extremities, unilateral semiptosis, tremor, circus movements) and severe manifestations of neurological disorders (3 to 10 points)—paresis of the extremities, palsy of low extremities, lateral position. The animals received single dose of nooglutyl and Compound I at the same dose 20 mg/kg intraperitoneally within 3-3.5 hours after the surgery. Controlled animals were treated with saline. At onset of the experiment each group comprised 15-20 animals. Mortality of the rats was recorded throughout the observation period (14 days). Statistical analysis was made using parametrical and non-parametrical methods and Biostat software. Nimodipin administered at 01.mg/kg according to above scheme was considered as a standard.

aged rats (24 months) = test: Passive avoidance response in aged rats (24 months); conditions: 20 mg/kg 60 days, PAR reproduction 24 hours after learning; for Number of the rats, which did not entry dark chamber (%): 20 mg/kg
Method: White nondescript male rats (Wistar line): to adult animals at age 3 months with body weight 250-300 g and aged 24 month old animals with body weight 350-450 g were used in the study. Nooglutyl at dose level 20 mg/kg and Compound I were administered to aged rats intraperitoneally for 2 months followed by assessment of the effect on learning capacity impaired by age and neurological deficit. Analysis of variance with Student's test, variant portion method and U-test were employed for data processing.
Impact of Compound I on memory disorders in aged animals. To develop passive avoidance response (PAR) in rats the unit supplied by Lafayette Instrument Co., (USA) (Ader et al. Retention of a passive avoidance response as a function of the intensity and duration of electric shock. Psycho Sci. 1972, v. 26, p. 125-128; Voronina T. A. et al. “Textbook for Experimental (Preclinical Study) of novel pharmacological compounds”. Moscow, Medicina. 2005, p. 253-263 and 308-320) was used. […] Animals preferring illuminated platform were not used in this experiment. In the dark chamber the animal received single pain stimulus with electric current (0.45 mA), duration of the stimulus was determined from the running out of the animal from the dark chamber.

[3] = 40 mg/kg intraperitoneally 30 minutes, 2, 24, 48 hours after surgery
[4] = 50 mg/kg intraperitoneally 30 minutes, 2, 24, 48 hours after surgery

Row | SMILES | Number of animals with neurological symptoms, %: Circus movements ([2]; Day 1) | Number of animals with neurological symptoms, %: Palsy of 1-4 extremities ([2]; Day 1) | Number of animals with neurological symptoms, %: Paresis of 1-4 extremities ([2]; Day 1) | Number of animals with neurological symptoms, %: Weakness of extremities ([2]; Day 1) | Number of animals with neurological symptoms, %: Circus movements ([2]; Day 14) | Number of animals with neurological symptoms, %: Palsy of 1-4 extremities ([2]; Day 14) | Number of animals with neurological symptoms, %: Paresis of 1-4 extremities ([2]; Day 14) | Number of animals with neurological symptoms, %: Weakness of extremities ([2]; Day 14) | Rats with severe neurological symptoms ([2]; Day 14) | Latent period of entry to dark chamber (c) (aged rats (24 months)) | Number of the rats, which did not entry dark chamber (%) (aged rats (24 months)) | other results
1 | O=C([O-])CC[C@H](NC(=O)c1cncc(O)c1)C(=O)[O-].[Ca+2] [Compound I, Calcium N-(5-hydroxynicotinoyl)-L-glutamate] | 10% | 0% | 10% | 20* % | 10% | 0% | 5* % | 0% | 15% | 96.9 ± 16.1 c | 60% | Total affected area (percentage of volume of ipsilateral hemisphere) ([1]; 40 mg/kg after ischemia-inducing exposure): 10.54±1.84%; Intensity of ischemic damage of cerebral cortex (slice score, points), slice 1 [1, 3]: 0.08 ± 0.01 points; Intensity of ischemic damage of cerebral cortex (slice score, points), slice 2 [1, 3]: 0.92 ± 0.12 points; Intensity of ischemic damage of cerebral cortex (slice score, points), slice 3 [1, 3]: 0.7 ± 0.19 points; Intensity of ischemic damage of cerebral cortex (slice score, points), slice 4 [1, 3]: 0.58 ± 0.14 points; Intensity of ischemic damage of cerebral cortex (slice score, points), slice 5 [1, 3]: 0.2 ± 0.15 points; Decrease of total affected extent versus control ([1]; 40 mg/kg, p<0.05): 47.3%
2 | O=C(O)CC[C@H](NC(=O)c1cncc(O)c1)C(=O)O [Nooglutyl, N-(5-hydroxynicotinoyl)-L-glutamic acid, reference compound] | 5% | 0% | 25% | 30* % | 0% | 0% | 20* % | 10% | 25% | 97.1 ± 20.3 c | 60% | Total affected area (percentage of volume of ipsilateral hemisphere) ([1]; 50 mg/kg after ischemia-inducing exposure): 14.3±2.14%; Intensity of ischemic damage of cerebral cortex (slice score, points), slice 1 [1, 4]: 0.28 ± 0.06 points; Intensity of ischemic damage of cerebral cortex (slice score, points), slice 2 [1, 4]: 1.12 ± 0.17 points; Intensity of ischemic damage of cerebral cortex (slice score, points), slice 3 [1, 4]: 1.01 ± 0.11 points; Intensity of ischemic damage of cerebral cortex (slice score, points), slice 4 [1, 4]: 0.59 ± 0.19 points; Intensity of ischemic damage of cerebral cortex (slice score, points), slice 5 [1, 4]: 0.18 ± 0.14 points
